In patent US11753408B2, “Compounds and method for blocking transmission of malarial parasite” (The United States of America, as represented by the …, priority 2016, dated 2023):

Legend:
[1] = Microsomal stability (rat); assay type: in vitro ADME; settings: rat microsomes
PAMPA permeability = assay type: in vitro ADME
mTOR = mTOR (Homo sapiens, UniProt P42345); experiment: mTOR activity (no method described); assay type: biochemical
Solubility at pH 7.4 = assay type: physicochemical
[2] = tested on: Asexual parasites of P. falciparum strain 3D7; experiment: In vitro drug activity on asexual parasites (SYBR Green assay); assay type: cell-based, Plasmodium falciparum
In short: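 SYBR Green I fluorescence (ex 490, em 520 nm) was read after freeze-thaw lysis and 30 min staining at room temperature. Before that, drug-treated cultures (0.5% parasitemia, 2% hematocrit, DMSO ≤0.5%) were incubated 72 h, in duplicate.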

SMILES | Microsomal Stability (rat) T1/2 [1] [min] | PAMPA Permeability (PAMPA permeability) [×10⁻⁶ cm/s] | mTOR (mTOR) [µM] | Sol @ pH 7.4 (Solubility at pH 7.4) [ug/mL] | EC50 [2] [µM]
COc1cc(C(=O)NC2CCN(CCO)CC2)ccc1-n1c(=O)ccc2cnc3ccc(-c4ccc(Cl)cc4)cc3c21 [Compound 254] | >30 | 5.7 | 3.012 | 53.1 | 0.206
COc1cc(C(=O)NCCCN2CCC(C)CC2)ccc1-n1c(=O)ccc2cnc3ccc(-c4ccc(Cl)cc4)cc3c21 [Compound 255] | 2.3 | 1040 | 12.95 | >88 | 0.182
CCN(CC)CCCNC(=O)c1ccc(-n2c(=O)ccc3cnc4ccc(-c5ccc(Cl)cc5)cc4c32)c(C)c1 [Compound 290] | 3 | 311 | 4.806 | 63.1 | 0.0644
O=C(O)c1ccc(-n2c(=O)ccc3c(O)nc4ccc(-c5ccc(Cl)cc5)cc4c32)cc1 [Compound 237] | >30 | 3.3 | 100 | >65 | 39.5
COc1cc(C(=O)NCCN2CCNCC2)ccc1-n1c(=O)ccc2cnc3ccc(-c4ccc(Cl)cc4)cc3c21 [Compound 257] | >30 | 1.5 | 2.719 | >84 | 0.0608
O=C(NC1CC1)c1ccc(-n2c(=O)ccc3cnc4ccc(-c5ccc(Cl)cc5)nc4c32)cc1 [Compound 93] | >30 | 76.3 | 0.4507 | <1 | 0.0279
O=C(NCCCO)c1ccc(-n2c(=O)ccc3cnc4ccc(-c5ccc(Cl)cc5)cc4c32)cc1 [Compound 214] | 21.2 | 333 | 0.3394 | <1 | 0.0188
CCN(CC)Cc1ccc(-c2ccc3ncc4ccc(=O)n(-c5ccc(C(=O)NC6CC6)cc5)c4c3c2)cc1 [Compound 243] | >30 | 382 | 14.6 | >76 | 0.677
Cc1cc(C(=O)NCCN(C)c2ccccc2)ccc1-n1c(=O)ccc2cnc3ccc(-c4ccc(Cl)cc4)cc3c21 [Compound 292] | 1.7 | 3.4 | 15.56 | 0 | 1.14
CC(C)NC(=O)c1ccc(-n2c(=O)ccc3cnc4ccc(-c5ccc(Cl)cc5)cc4c32)cc1 [Compound 213] | 18.9 | < 1 | 1.299 | <1 | 0.13
Cc1cc(C(=O)NCCN2CCC2)ccc1-n1c(=O)ccc2cnc3ccc(-c4ccc(Cl)cc4)cc3c21 [Compound 293] | 22.9 | 241 | 6.103 | 0 | 0.146
O=C(NC1CN(CCO)C1)c1ccc(-n2c(=O)ccc3cnc4ccc(-c5ccc(Cl)cc5)cc4c32)cc1 [Compound 94] | >30 | 1.9 | 4.188 | 13.6 | 0.0249
NCCc1ccc(-c2ccc3ncc4ccc(=O)n(-c5ccc(C(=O)NC6CC6)cc5)c4c3c2)cc1 [Compound 240] | >30 | < 1 | 0.4436 | 31.6 | 0.0529
Cc1cc(C(=O)NCCCN(CCO)CCO)ccc1-n1c(=O)ccc2cnc3ccc(-c4ccc(Cl)cc4)cc3c21 [Compound 281] | 3 | 33.4 | 2.18 | >86 | 0.0274
CCC(=O)NCCNC(=O)c1ccc(-n2c(=O)ccc3cnc4ccc(-c5ccc(Cl)cc5)cc4c32)cc1 [Compound 287] | 4.3 | 21.7 | 2.083 | <1 | 0.0584
CCNC(=O)c1ccc(-n2c(=O)ccc3cnc4ccc(-c5ccc(Cl)cc5)cc4c32)cc1 [Compound 216] | 6.7 | 1.1 | 0.8321 | <1 | 0.0422

Next, values leading:

Microsomal Stability (rat) T1/2 [1] [min] | PAMPA Permeability (PAMPA permeability) [×10⁻⁶ cm/s] | mTOR (mTOR) [µM] | Sol @ pH 7.4 (Solubility at pH 7.4) [ug/mL] | EC50 [2] [µM] | SMILES
>30 | 11.7 | 10.41 | >61 | 3.82 | N#Cc1ccc2ncc3ccc(=O)n(-c4ccc(C(=O)N5CCOCC5)cc4)c3c2c1 [Compound 245]
18 | 364 | 0.8505 | <1 | 0.0227 | O=C(NC1COC1)c1ccc(-n2c(=O)ccc3cnc4ccc(-c5ccc(Cl)cc5)cc4c32)cc1 [Compound 231]
>30 | 415 | 3.267 | 57.8 | 0.12 | CN(C)CCOc1ccc(-c2ccc3ncc4ccc(=O)n(-c5ccc(C(=O)N6CCOCC6)cc5)c4c3c2)cc1 [Compound 202]
6.3 | 492 | 0.7638 | <1 | 0.177 | O=C(NCCN1CCOCC1)c1ccc(-n2c(=O)ccc3cnc4ccc(-c5ccc(Cl)cc5)cc4c32)cc1 [Compound 215]
>30 | 227 | 43.09 | >83 | 3.88 | O=C(c1ccc(-n2c(=O)ccc3cnc4ccc(-c5cccc(CCN6CCCC6)c5)cc4c32)cc1)N1CCOCC1 [Compound 211]
3.4 | 564 | 100 | <1 | 24.4 | O=C(c1ccc(-n2c(=O)ccc3c(F)nc4ccc(-c5ccc(Cl)cc5)cc4c32)cc1)N1CCOCC1 [Compound 235]
12.6 | 127 | 4.247 | 9.4 | 0.156 | O=C(NCCN1CCCC1)c1ccc(-n2c(=O)ccc3cnc4ccc(-c5ccc(Cl)cc5)cc4c32)cc1 [Compound 220]
12.6 | 13.8 | 17.28 | <1 | 1.62 | CC(C)c1ccc(-c2ccc3ncc4ccc(=O)n(-c5ccc(C(=O)N6CCOCC6)cc5)c4c3c2)cc1 [Compound 201]
>30 | 216 | 7.873 | >76 | 1.64 | CN1Cc2ccc(-c3ccc4ncc5ccc(=O)n(-c6ccc(C(=O)N7CCOCC7)cc6)c5c4c3)cc2C1 [Compound 244]
29.3 | 750 | 0.5128 | 1.2 | 0.0172 | O=C(NC1CC1)c1ccc(-n2c(=O)ccc3cnc4ccc(-c5ccc(F)c(O)c5)cc4c32)cc1 [Compound 203]
>30 | < 1 | 0.373 | >74 | 0.489 | O=C(c1ccc(-n2c(=O)ccc3cnc4ccc(-c5ccc6c(c5)CNC6)cc4c32)cc1)N1CCOCC1 [Compound 242]
>30 | 439 | 0.2148 | <1 | 0.0568 | Nc1cc(-c2ccc3ncc4ccc(=O)n(-c5ccc(C(=O)NC6CC6)cc5)c4c3c2)ccc1Cl [Compound 238]
1.6 | 936 | 11.02 | 0 | 0.15 | Cc1cc(C(=O)NCCCN2CCOCC2)ccc1-n1c(=O)ccc2cnc3ccc(-c4ccc(F)cc4)cc3c21 [Compound 297]
7.1 | 428 | 19.64 | 44.1 | 0.0489 | O=C(NCCCN1CCCC1)c1ccc(-n2c(=O)ccc3cnc4ccc(-c5ccc(Cl)cc5)cc4c32)cc1 [Compound 206]
>30 | 155 | 6.306 | >76 | 0.162 | O=C(NC1CC1)c1ccc(-n2c(=O)ccc3cnc4ccc(-c5ccc(CN6CCCC6)cc5)cc4c32)cc1 [Compound 233]
22.2 | 133 | 1.504 | <1 | 0.0455 | COc1cc(-c2ccc3ncc4ccc(=O)n(-c5ccc(C(=O)NC6CC6)cc5)c4c3c2)ccc1Cl [Compound 221]
5.6 | 1440 | 16.51 | 1.4 | 0.109 | COc1cc(C(=O)N2CCOCC2)ccc1-n1c(=O)ccc2cnc3ccc(-c4ccc(Cl)cc4)cc3c21 [Compound 199]
>30 | 130 | 17.83 | >83 | 0.531 | O=C(c1ccc(-n2c(=O)ccc3cnc4ccc(-c5ccc(CCN6CCCC6)cc5)cc4c32)cc1)N1CCOCC1 [Compound 217]
